For orientation: Ki means the dissociation constant of the complex between target and ligand, obtained from inhibition or displacement.

This note sets out measurements from ChEMBL document CHEMBL1138646, “Carbonic anhydrase inhibitors: inhibition of the membrane-bound human isozyme IV with anions” (Bioorg Med Chem Lett, 2004).

In assay [1] the target is T1, Carbonic anhydrase 4 (Homo sapiens, UniProt P22748).
Description: Inhibition constant of anion against human carbonic anhydrase isozyme hCA IV
Assay [2] deals with T2, Carbonic anhydrase V (Homo sapiens, UniProt Q9Y2D0+P35218). It is filed as protein assay.
Description: Inhibition constant of anion against human carbonic anhydrase isozyme hCA V
For a further assay, the target named is Carbonic anhydrase 9 (Homo sapiens, UniProt Q16790).
The target of assay [3] is T1, Carbonic anhydrase 4. In words: Inhibition constant against human carbonic anhydrase isozyme hCA IV.
In assay [4] the target is T2, Carbonic anhydrase V. In words: Inhibition constant against human carbonic anhydrase isozyme hCA V. Format: protein assay.

Several values for one entry are separate records, joined by “and”; a condition that tells them apart may be missing. Equal values may be shown once.

T1 sequence (P22748 whole entry): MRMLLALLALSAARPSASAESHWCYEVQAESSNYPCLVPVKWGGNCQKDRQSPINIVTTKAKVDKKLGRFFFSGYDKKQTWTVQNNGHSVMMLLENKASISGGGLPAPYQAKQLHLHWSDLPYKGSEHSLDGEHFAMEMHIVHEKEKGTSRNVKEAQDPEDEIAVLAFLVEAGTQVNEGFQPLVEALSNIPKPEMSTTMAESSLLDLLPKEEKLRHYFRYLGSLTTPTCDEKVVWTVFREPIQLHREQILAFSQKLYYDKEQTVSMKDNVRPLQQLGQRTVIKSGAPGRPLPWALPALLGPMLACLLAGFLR
Description for Carbonic anhydrase 9: Inhibition constant of anion against human carbonic anhydrase isozyme hCA IX

With `O=C(O)O` [BICARBONATE], the Ki is 6.6 mM and 5.7 mM at Carbonic anhydrase 4 [1]; 82 mM and 95 mM at Carbonic anhydrase V [2] (read-out: Ki); 13 mM at Carbonic anhydrase 9.
In the case of `Br` [BROMIDE], the Ki at Carbonic anhydrase 4 [1] was 0.09 mM; at Carbonic anhydrase V [2] (read-out: Ki), 50 mM; at Carbonic anhydrase 9 it was 16 mM.
The corresponding values for `N#CO` [CYANATE] are 0.61 mM, 0.02 mM and 0.04 mM.
The corresponding values for `F` [FLUORIDE ION] are 0.07 mM, 241 mM and 48 mM.
As for `Cl` [HYDROCHLORIC ACID], the Ki on Carbonic anhydrase 4 [1] is 0.09 mM; on Carbonic anhydrase V [2], 156 mM; at Carbonic anhydrase 9, 33 mM.
The corresponding values for `S` [HYDROGEN SULFIDE] are 3.9 mM, 0.02 mM and 0.007 mM.
The corresponding values for `I` [IODIDE] are 0.08 mM, 25 mM and 7 mM.
The corresponding values for `O=[N+]([O-])O` [NITRIC ACID] are 58.7 mM, 16 mM and 46 mM.
Turning to `O=NO` [NITROUS ACID], the Ki stood at 30.8 mM on Carbonic anhydrase 4 [1] and 16 mM on Carbonic anhydrase V [2] (read-out: Ki).
Consider `OB(O)c1ccccc1` [PHENYLBORONIC ACID], for which the Ki came out at 0.00088 mM at Carbonic anhydrase 4 [3] and 4.5 mM at Carbonic anhydrase V [4].
The corresponding values for `NS(=O)(=O)O` [SULFAMATE] are 0.00093 mM and 0.12 mM.
Consider `O=S(=O)(O)O` [SULFURIC ACID], for which the Ki at Carbonic anhydrase 4 [1] worked out at 9 mM; at Carbonic anhydrase V [2] it was 680 mM.
As for `O=S(O)O` [SULFUROUS ACID], the inhibition constant Ki at Carbonic anhydrase 4 [1] came to 13.2 mM; at Carbonic anhydrase V [2] (read-out: Ki), 65 mM.
`N#CS` [THIOCYANIC ACID]: the Ki at Carbonic anhydrase 4 [1] came out at 39 mM; on Carbonic anhydrase V [2] (read-out: Ki), 0.74 mM; at Carbonic anhydrase 9 it was 0.13 mM.
